Measurements as given in patent US20090264485A1, “Pyrazole Derivatives, Their Manufacture and Their Use as Pharmaceutical Agents” (priority 2005, published 2009).

How the values were obtained:
HEK293 cells = experiment: CellTiter-Glo Luminescent Cell Viability Assay in HEK293 cells; format: cell-based; conditions: Homo sapiens, 168 h, 7 days incubation, CellTiter-Glo luminescence
Source text: CellTiter-Glo™ Assay in HEK293 Cells
The CellTiter-Glo™ Luminescent Cell Viability Assay (Promega) is a homogeneous method of determining the number of viable cells in culture based on quantitation of the ATP present, which signals the presence of metabolically active cells.
HEK293 cells (human embryonic kidney cell line transformed by Adenovirus 5 fragments, ATCC-No. CRL 1573) were cultivated in Dulbecco's Modified Eagle Medium (DMEM) with Glutamax™ (Invitrogen, 31966-021), 5% Fetal Calf Serum (FCS, Sigma Cat-No. F4135 (FBS)), 100 Units/ml penicillin/100 μg/ml streptomycin (=Pen/Strep from Invitrogen Cat. No. 15140). For the assay the cells were seeded in 384 well plates, 5000 cells per well, in the same medium. The next day the test compounds were added in various concentrations ranging from 3 μM to 0.00015 μM (10 concentrations, 1:3 diluted). After 7 days the CellTiter-Glo™ assay was done according to the instructions of the manufacturer (CellTiter-Glo™ Luminescent Cell Viability Assay, from Promega). In brief: the cell-plate was equilibrated to room temperature for approximately 30 minutes and than the CellTiter-Glo™ reagent was added. The contents were carefully mixed for 15 minutes to induce cell lysis. After 45 minutes the luminescent signal was measured in Victor 2, (scanning multiwell spectrophotometer, Wallac).
• Medium: Dulbecco's Modified Eagle Medium (DMEM) with Glutamax™ (Invitrogen, 31966-021), 5% Fetal Calf Serum (FCS, Sigma Cat-No. F4135 (FBS)), Pen/Strep (Invitrogen Cat. No. 15140). • HEK293 (ATCC-No. CRL 1573): 5000 cells in 60 μl per well of 384 well plate (Greiner 781098, white plates) • Incubate 24 h at 37° C., 5% CO2
In general the dilution steeps are 1:3 • a) Add 8 μl of 10 mM stock solution of compound to 72 μl DMSO • b) dilute 9×1:3 (always 30 μl to 60 μl DMSO) in this DMSO dilution row (results in 10 wells with concentrations from 1000 μM to 0.06 μM) • c) dilute each concentration 1:4.8 (10 μl compound dilution to 38 μl medium) • d) dilute each concentration 1:10 (10 μl compound dilution to 90 μl medium) • e) add 10 μl of every concentration to 60 μl medium in the cell plate • resulting in final concentration of DMSO: 0.3% in every well • and resulting in final concentration of compounds from 3 μM to 0.00015 μM • Incubate 168 h (7 days) at 37° C., 5% CO2
• Add 30 μl CellTiter-Glo™ Reagent/well, • shake 15 minutes at room temperature • incubate further 45 minutes at room temperature without shaking.
• Victor 2 scanning multiwell spectrophotometer (Wallac), Luminescence mode • Determine IC50 with XL-fit (XLfit software (ID Business Solution Ltd., Guilford, Surrey, UK)).

Row | SMILES | IC50 (HEK293 cells) [nM] | melting point [°C]
1 | Cc1cc(OCc2coc(/C=C/c3ccc(OC(F)(F)F)cc3)n2)ccc1COCCc1ccnn1C [Example 1, 4-{3-Methyl-4-[2-(E)-(2-methyl-2H-pyrazol-3-yl)-ethoxymethyl]-phenoxymethyl}-2-[2-(4-trifluoromethoxy-phenyl)-vinyl]-oxazole] | 95 | 77 to 78
2 | Cc1cc(OCc2coc(/C=C/c3ccc(C(F)(F)F)cc3)n2)ccc1COCCc1ccnn1C [Example 2, 4-{3-Methyl-4-[2-(E)-(2-methyl-2H-pyrazol-3-yl)-ethoxymethyl]-phenoxymethyl}-2-[2-(4-trifluoromethyl-phenyl)-vinyl]-oxazole] | 5 to 250 | 96 to 97
3 | Cc1cc(OCc2coc(/C=C/c3ccc(Cl)cc3)n2)ccc1COCCc1ccnn1C [Example 3, 2-[2-(E)-(4-Chloro-phenyl)-vinyl]-4-{3-methyl-4-[2-(2-methyl-2H-pyrazol-3-yl)-ethoxymethyl]-phenoxymethyl}-oxazole] | 5 to 250 | 106 to 107
4 | Cc1cc(OCc2coc(/C=C/c3ccc(C(F)(F)F)cc3F)n2)ccc1COCCc1ccnn1C [Example 4, 2-[2-(E)-(2-Fluoro-4-trifluoromethyl-phenyl)-vinyl]-4-{3-methyl-4-[2-(2-methyl-2H-pyrazol-3-yl)-ethoxymethyl]-phenoxymethyl}-oxazole] | 5 to 250 | –
5 | Cc1cc(OCc2coc(/C=C/c3ccc(OC(F)(F)F)cc3)n2)ccc1C[S+]([O-])CCc1ccnn1C (centres unmarked) [Example 5, 4-{3-Methyl-4-[2-(2-methyl-2H-pyrazol-3-yl)-ethanesulfinylmethyl]-phenoxymethyl}-2-[2-(E)-(4-trifluoromethoxy-phenyl)-vinyl]-oxazole] | – | 138 to 139
6 | Cc1cc(OCc2coc(/C=C/c3ccc(Cl)cc3)n2)ccc1C[S+]([O-])CCc1ccnn1C (centres unmarked) [Example 6, 2-[2-(E)-(4-Chloro-phenyl)-vinyl]-4-{3-methyl-4-[2-(2-methyl-2H-pyrazol-3-yl)-ethanesulfinylmethyl]-phenoxymethyl}-oxazole] | 5 to 250 | 169 to 171
7 | Cc1cc(OCc2coc(/C=C/c3ccc(C(F)(F)F)cc3)n2)ccc1C[S+]([O-])CCc1ccnn1C (centres unmarked) [Example 7, 4-{3-Methyl-4-[2-(2-methyl-2H-pyrazol-3-yl)-ethanesulfinylmethyl]-phenoxymethyl}-2-[2-(E)-(4-trifluoromethyl-phenyl)-vinyl]-oxazole] | 5 to 250 | 161 to 162
8 | Cn1nccc1CC[S+]([O-])Cc1ccc(OCc2coc(/C=C/c3ccc(OC(F)(F)F)cc3)n2)cc1 (centres unmarked) [Example 8, 4-{4-[2-(2-Methyl-2H-pyrazol-3-yl)-ethanesulfinylmethyl]-phenoxymethyl}-2-[2-(E)-(4-trifluoromethoxy-phenyl)-vinyl]-oxazole] | 250 to 1000 | 144 to 146
9 | Cn1nccc1CC[S+]([O-])Cc1ccc(OCc2coc(/C=C/c3ccc(C(F)(F)F)cc3)n2)cc1 (centres unmarked) [Example 9, 4-{4-[2-(2-Methyl-2H-pyrazol-3-yl)-ethanesulfinylmethyl]-phenoxymethyl}-2-[2-(E)-(4-trifluoromethyl-phenyl)-vinyl]-oxazole] | 250 to 1000 | 172 to 174
10 | Cn1nccc1CCS(=O)(=O)Cc1ccc(OCc2coc(/C=C/c3ccc(C(F)(F)F)cc3)n2)cc1 [Example 10, 4-{4-[2-(2-Methyl-2H-pyrazol-3-yl)-ethanesulfonylmethyl]-phenoxymethyl}-2-[2-(4-trifluoromethyl-phenyl)-vinyl]-oxazole] | – | 204
